The values that follow are results of earlier work, collected in US6635277B2, “Composition for pulsatile delivery of diltiazem and process of manufacture” (Wockhardt Limited, priority 2000, dated 2003).

SMILES strings stand for the structures.

The conditions of this data set: in 0.1N HCl.

Consider `CCCCCCCCCCCCOS(=O)(=O)[O-].[Na+]` [sodium lauryl sulfate], for which the Fraction ionized is listed as 10%.
